Laboratory results taken from ChEMBL document CHEMBL4680140, “Minor chemical modifications of the aminosteroid derivative RM-581 lead to major impact on its anticancer activity, metabolic stability and aqueous solubility” (Eur J Med Chem, 2020).
≈ marks a conversion by molar mass, not a printed value.

Experiments:
Format in all cases: physicochemical
[1] = Solubility of compound in PBS at pH 7.4 at 300 uM after 24 hrs by HPLC-UV analysis
[2] = Solubility of compound in PBS at pH 7.4
[3] = Solubility of compound in PBS at pH 7.4 by shake flask method

| Structure (SMILES) | solubility at 24 h, 300 µM [1] | solubility [2] | solubility thermodynamic [3] |
| --- | --- | --- | --- |
| CC(C)C(=O)Nc1ccc([N+](=O)[O-])c(C(F)(F)F)c1 [FLUTAMIDE] | 19.9 µg/mL (≈ 72 µM) | 19.9 µg/mL (≈ 72 µM) | – |
| COc1ccc(Cl)cc1C(=O)NCCc1ccc(S(=O)(=O)NC(=O)NC2CCCCC2)cc1 [GLYBURIDE] | 6.7 µg/mL (≈ 13.6 µM) | – | 5.6 µg/mL (≈ 11.3 µM) |
